Laboratory results reported in ChEMBL document CHEMBL1127899, “Potent, acid-stable and orally active macrolide-type motilin receptor agonists, GM-611 and the derivatives” (Bioorg Med Chem Lett, 1994).
Converted amounts (≈) assume the structure as drawn.

Columns and labels:
Oryctolagus cuniculus = species: Oryctolagus cuniculus; assay: Concentration required for in vitro smooth muscle contractile activity of the compound, expressed as negative logarithm of EC50; format: functional; conditions: Muscle tissue
Canis familiaris [1] = assay: Tested for in vivo smooth muscle contractile activity, expressed as MI100 (dose to give 100 of motor index after ig administration).; format: functional, Canis lupus familiaris, Muscle tissue
Canis familiaris [2] = assay: Tested for in vivo smooth muscle contractile activity, expressed as MI100 (dose to give 100 of motor index after iv administration); format: functional, Canis lupus familiaris, Muscle tissue
Streptococcus pneumoniae = assay: Antibacterial activity against Streptococcus pneumoniae No.12, activity expressed as MIC; format: functional
Motilin receptor [3] = biological target: T1, Motilin receptor (Oryctolagus cuniculus, UniProt A5A4K8); assay: Concentration required for in vitro motilin receptor binding, expressed as negative logarithm of IC50
T1 sequence (A5A4K8 whole entry): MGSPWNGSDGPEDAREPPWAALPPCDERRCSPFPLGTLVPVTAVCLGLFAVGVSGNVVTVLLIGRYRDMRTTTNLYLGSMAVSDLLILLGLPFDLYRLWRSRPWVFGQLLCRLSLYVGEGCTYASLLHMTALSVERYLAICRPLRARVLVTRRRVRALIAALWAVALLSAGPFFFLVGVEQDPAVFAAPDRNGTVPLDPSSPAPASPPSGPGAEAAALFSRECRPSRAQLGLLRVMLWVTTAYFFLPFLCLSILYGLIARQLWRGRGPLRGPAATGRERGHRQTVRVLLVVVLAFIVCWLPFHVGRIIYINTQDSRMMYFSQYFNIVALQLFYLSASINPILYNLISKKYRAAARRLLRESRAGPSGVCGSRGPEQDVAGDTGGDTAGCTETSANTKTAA

Motilin receptor [4] = biological target: T1, Motilin receptor; assay: Concentration required for in vitro acid stability with hydrochloric acid solution (pH 2.5 ) at room temperature for 2 hr by assaying the solution for motilin receptor binding
Staphylococcus aureus = assay: Antibacterial activity against Staphylococcus aureus 209P, activity expressed as MIC; format: functional
Bacillus subtilis = assay: Antibacterial activity against Bacillus subtilis ATCC 6633, activity expressed as MIC; format: functional
Klebsiella pneumoniae = assay: Antibacterial activity against Klebsiella pneumoniae IFO 3512, activity expressed as MIC; format: functional
Escherichia coli = assay: Antibacterial activity against Escherichia coli NIHJ JC-2, activity expressed as MIC; format: functional

| SMILES | EC50 (Oryctolagus cuniculus) | MI100 (Canis familiaris [1]) | MI100 (Canis familiaris [2]) | MIC (Streptococcus pneumoniae) | IC50 (Motilin receptor [3]) | IC50 (Motilin receptor [4]) | MIC (Staphylococcus aureus) | MIC (Bacillus subtilis) | MIC (Klebsiella pneumoniae) | MIC (Escherichia coli) |
| --- | --- | --- | --- | --- | --- | --- | --- | --- | --- | --- |
| CCC1OC(=O)C(C)C(O[C@H]2C[C@@](C)(OC)[C@@H](O)C(C)O2)C(C)[C@@H](OC2OC(C)CC(N(C)CC)[C@H]2O)[C@]2(C)CC(C)=C(O2)[C@H](C)C(=O)[C@]1(C)OC (some centres undefined) | 43.7 nM | 4.3 µg/kg | 1.1 µg/kg | 50 µg/mL (≈ 67.4 µM) | 3.8 nM | 6.46 nM |  |  |  |  |
| CCC1OC(=O)C(C)C(O[C@H]2C[C@@](C)(OC)[C@@H](O)C(C)O2)C(C)[C@@H](OC2OC(C)CC(N(C)C(C)C)[C@H]2O)[C@]2(C)CC(C)=C(O2)[C@H](C)C(=O)[C@]1(C)OC (some centres undefined) | 38.9 nM | 1.5 µg/kg | 1 µg/kg |  | 6.03 nM | 7.94 nM |  |  |  |  |
| CC[C@H]1OC(=O)[C@H](C)[C@@H](O[C@H]2C[C@@](C)(OC)[C@@H](O)[C@H](C)O2)[C@H](C)[C@@H](O[C@@H]2O[C@H](C)C[C@H](N(C)C)[C@H]2O)[C@@]2(C)CC(C)=C(O2)[C@H](C)[C@@H](O)[C@]1(C)O | 41.7 nM |  | 1 µg/kg |  | 3.39 nM | 224 nM |  |  |  |  |
| CCC1OC(=O)C(C)C(O[C@H]2C[C@@](C)(OC)[C@@H](O)C(C)O2)C(C)[C@@H](OC2OC(C)CC(N(C)C)[C@H]2O)[C@]2(C)CC(C)=C(O2)[C@H](C)C(=O)[C@]1(C)OC (some centres undefined) | 117 nM | 2.4 µg/kg | 2.9 µg/kg | 3.1 µg/mL (≈ 4.26 µM) | 9.12 nM | 8.91 nM | 13 µg/mL (≈ 17.9 µM) | 6.3 µg/mL (≈ 8.65 µM) | 100 µg/mL (≈ 137 µM) |  |
| CCC1OC(=O)C(C)C(O[C@H]2C[C@@](C)(OC)[C@@H](O)C(C)O2)C(C)[C@@H](OC2OC(C)CC(N(C)CC)[C@H]2O)[C@]2(C)CC(C)=C(O2)[C@H](C)[C@@H](O)[C@]1(C)O (some centres undefined) | 47.9 nM | 14.9 µg/kg | 0.9 µg/kg | 25 µg/mL (≈ 34.2 µM) | 3.16 nM | 302 nM |  | 100 µg/mL (≈ 137 µM) |  |  |
| CCC1OC(=O)C(C)C(O[C@H]2C[C@@](C)(OC)[C@@H](O)C(C)O2)C(C)[C@@H](OC2OC(C)CC(N(C)C)[C@H]2O)[C@@](C)(O)C[C@@H](C)C(=O)[C@H](C)[C@@H](O)[C@]1(C)O (some centres undefined) | 316 nM |  | 32.3 µg/kg | 0.1 µg/mL (≈ 0.136 µM) | 43.7 nM | 70.8 nM | 0.39 µg/mL (≈ 0.531 µM) | 0.39 µg/mL (≈ 0.531 µM) | 6.3 µg/mL (≈ 8.58 µM) | 100 µg/mL (≈ 136 µM) |
| CCC1OC(=O)C(C)C(O[C@H]2C[C@@](C)(OC)[C@@H](O)C(C)O2)C(C)[C@@H](OC2OC(C)CC(N(C)C)[C@H]2O)[C@]2(C)CC(C)C3(O[C@]1(C)[C@H](O)[C@H]3C)O2 (some centres undefined) | > 10000 nM |  | >70 µg/kg |  | 155 nM | 170 nM |  |  |  |  |
